Experiment [1] concerns the target immunoproteasome LMP7/B5i subunit (Homo sapiens, UniProt P28062). As to the kind of experiment: Caliper-based proteasome enzymatic activity assay, LMP7. The experiment is classed as biochemical. The settings on record: human recombinant immunoproteasome 0.3 nM, FAM peptide substrate 1 μM, rt 3 h.
The target in experiment [2] is constitutive proteasome β5c subunit (Homo sapiens, UniProt P28074). The experiment in a line: Caliper-based proteasome enzymatic activity assay, β5c. The experiment is classed as biochemical. Particulars: human recombinant constitutive proteasome 0.3 nM, FAM peptide substrate 1 μM, rt 3 h.
Experiment [3] concerns the target immunoproteasome LMP2 subunit (Homo sapiens, UniProt P28065). As to the kind of experiment: Caliper-based proteasome enzymatic activity assay, LMP2. The experiment is classed as biochemical. The settings on record: human recombinant immunoproteasome 0.3 nM, FAM peptide substrate 1 μM, rt 2 h.
Experiment [4] has as its target T1, PBMC LMP7 (Homo sapiens, UniProt P28062). The experiment in a line: Inhibition of proteasome activity in cells (Proteasome-Glo), PBMC/LMP7. In kind it is cell-based. Particulars: 2 h incubation at 37° C. The procedure: (§1) The cell-based effects of a compound described herein on the immunoproteasome were determined by measuring inhibition of proteasome activity in cells using the Proteasome-Glo™ Cell-Based Reagent (Promega, Madison WI). The Proteasome-Glo™ assay contains a specific luminogenic proteasome substrate in a buffer optimized for cell permeabilization, proteasome activity, and luciferase activity. For the chymotrypsin-like activity (LMP7 and 05c), the peptide substrate is Suc-LLVY-aminoluciferin (Succinyl-leucine-leucine-valine-tyrosine-aminoluciferin). Cleavage of the substrate by proteasome results in luminescent signal which is proportional to the proteasome activity. The cell line THP-1 (a monocytic leukemia cell line enriched in immunoproteasome), the cell line HT-29 (a colorectal adenocarcinoma cell line enriched in constitutive proteasome), and primary human peripheral blood mononuclear cells (PBMC) were used to assess proteasome activity. Cells were seeded in a 96-well plate at 10,000 cells per well in RPMI 1640 high glucose medium with 10% fetal bovine serum (FBS). Compound dilutions were added to cells starting at a concentration of 5 uM and decreasing in tripling dilutions. The final DMSO concentration was 1%. The concentration range was adjusted as needed for compounds of different potencies. The cells treated with compounds were incubated for 2 h at 37° C. in 5% CO2. At the end of the 2 hour incubation period, cells were transferred to white 384 well assay plates. 20 uL of Proteasome-Glo™ Reagent was added to each well and incubated for 10 minutes at rt. The plate was read in the Analyst HT instrument (Molecular Devices, Sunnyvale, CA) using luminescence mode. The percent inhibition of activity was plotted as a function of log compound concentration. The IC50 was then calculated for each compound using Prism software from GraphPad Software Inc. (San Diego, CA).

Experiment [5] addresses T2, HT29 β5c (Homo sapiens, UniProt P28074). The experiment in a line: Inhibition of proteasome activity in cells (Proteasome-Glo), HT29/β5c. The experiment is classed as cell-based. The settings on record: HT-29 cells, 2 h incubation at 37° C. The procedure:
as §1, with “Compound dilutions were added to cells starting at a concentration of 5 uM and decreasing in tripling dilutions. The final DMSO concentration was 1%. The concentration range was adjusted as needed for compounds of different potencies. The cells treated with compounds were incubated for 2 h at 37° C. in 5% CO2. At the end of the 2 hour incubation period, cells were transferred to white 384 well assay plates. 20 uL of Proteasome-Glo™ Reagent was added to each well and incubated for 10 minutes at rt.” left out, “The percent inhibition of activity was plotted as a function of log compound concentration.” left out

Experiment [6] addresses T3, PBMC LMP2 (Homo sapiens, UniProt P28065). The experiment in a line: Inhibition of proteasome activity in cells (Proteasome-Glo), PBMC/LMP2. The settings on record: 2 h incubation at 37° C. In kind it is cell-based. The procedure:
as §1

Experiment [7] deals with T1, PBMC LMP7. The experiment in a line: Durability of binding in cells (wash-out, Proteasome-Glo), PBMC LMP7. In kind it is cell-based. The procedure: (§2) The durability of binding of proteasome inhibitors was assessed in cells using wash-out assays and the Proteasome-Glo™ Reagent kit. THP-1 cells, HT-29 cells, or PBMC were incubated with an 8-fold dilution series of inhibitor for 2 h. Following 2 h of incubation, cells were washed using 3 occasions of centrifugation followed by resuspension in culture medium. Following inhibitor washout, cells were returned to culture for either 30 minutes, 4 h, or 18 h. Cells were then transferred to white 384 plates, and 20 uL of Proteasome-Glo™ Reagent was added to each well for 10 minutes. Plates were then read on an Analyst HT plate reader using luminescence mode. The percent inhibition of activity was plotted as a function of log compound concentration. The IC50 was then calculated for each compound using Prism software from GraphPad.

Experiment [8] concerns the target T2, HT29 β5c. The experiment in a line: Durability of binding in cells (wash-out, Proteasome-Glo), HT29 β5c. In kind it is cell-based. How it is done:
as §2

For experiment [9], the target named is T3, PBMC LMP2. As to the kind of experiment: Durability of binding in cells (wash-out, Proteasome-Glo), PBMC LMP2. The experiment is classed as cell-based. The procedure: as §2
Experiment [10] relates to multiple myeloma cell lines and primary patient tumor cells. Particulars: cited from earlier work.
Experiment [11] concerns Th1/17 differentiation. Particulars: cited from earlier work.
Experiment [12] deals with production of proinflammatory cytokines (IL-6, TNF-α, IL-23). The settings on record: cited from earlier work.
The subject of experiment [13] is murine collagen-induced arthritis. The settings on record: mouse, in vivo; cited from earlier work.
In experiment [14] the test system is MRL/lpr lupus model. The settings on record: cited from earlier work.
Experiment [15] concerns murine DSS-induced colitis model. The settings on record: cited from earlier work.
Experiment [16] relates to Hashimoto's thyroiditis model. Particulars: mouse, in vivo; cited from earlier work.
Experiment [17] concerns prostate PC-3 cell line. Particulars: cited from earlier work.
Experiment [18] deals with tumor growth. The settings on record: mouse; cited from earlier work.

In the case of `CC(C)(C)NC(=O)C(C#N)=Cc1cccc(OCCC(=O)N[C@@H](Cc2ccccc2)B(O)O)c1` [Example 2, (R)-(1-(3-(3-(3-(tert-butylamino)-2-cyano-3-oxoprop-1-en-1-yl)phenoxy)propanamido)-2-phenylethyl)boronic Acid], the IC50 (commonly the concentration that gives 50% inhibition) in experiment [1] was found to be 3 nM; in experiment [2] it was 66 nM; in experiment [3], 160 nM; in [4], 5 nM; in experiment [5] it was 73 nM; in experiment [6], 3820 nM. Further, the half-inhibitory concentration (IC50) in [7] (30 min after inhibitor washout) was 5 nM; in [7] (4 hr after inhibitor washout), 10 nM; in experiment [7] (18 hr after inhibitor washout), 126 nM; in experiment [8] (30 min after inhibitor washout) it was 109 nM; in [8] (4 hr after inhibitor washout), over 5000 nM; in experiment [8] (18 hr after inhibitor washout) it was over 5000 nM. Further, the IC50 in experiment [9] (4 hr after inhibitor washout) and in experiment [9] (18 hr after inhibitor washout) was over 5000 nM each time.
As to `CN1CCN(C(=O)C(C#N)=Cc2cccc(OCCC(=O)N[C@@H](Cc3ccccc3)B(O)O)c2)CC1` [Example 19, (R)-(1-(3-(3-(2-cyano-3-(4-methylpiperazin-1-yl)-3-oxoprop-1-en-1-yl)phenoxy)propanamido)-2-phenylethyl)boronic Acid], the IC50 in [1] was 11 nM; in experiment [2], 43 nM; in experiment [3] it was 170 nM; in experiment [4], 67 nM; in [6], over 5000 nM.
As to `CNC(=O)C(C#N)=Cc1cccc(OCCC(=O)N[C@@H](Cc2ccccc2)B(O)O)c1` [Example 20, (R)-(1-(3-(3-(2-cyano-3-(methylamino)-3-oxoprop-1-en-1-yl)phenoxy)propanamido)-2-phenylethyl)boronic Acid], the IC50 in experiment [1] was 3 nM; in experiment [2], 32 nM; in experiment [3], 120 nM; in [4], 34 nM; in [6], over 5000 nM.
In the case of `CC1=C(C(=O)N[C@H](C)C(=O)N[C@@H](Cc2c[nH]c3ccccc23)C(=O)N[C@@H](Cc2ccccc2)C(=O)[C@@]2(C)CO2)Cc2ccccc21` [PR-924], the “growth of multiple myeloma cell lines and primary patient tumor cells” value in experiment [10] is “inhibit growth”.
In the case of `COc1ccc(C[C@H](NC(=O)[C@H](C)NC(=O)CN2CCOCC2)C(=O)N[C@@H](Cc2ccccc2)C(=O)[C@@]2(C)CO2)cc1` [PR-957], the “human and mouse Th1/17 differentiation” value in experiment [11] was “potently block”. The “B cell effector functions and production of proinflammatory cytokines (IL-6, TNF-α, IL-23)” value in experiment [12] was “potently block”. For the same molecule, in experiment [13], the “disease activity in murine collagen-induced arthritis” value was “significantly inhibit disease activity”. Moreover, in [14], the “plasma cell numbers and anti-dsDNA IgG levels” value is “reduced plasma cell numbers and anti-dsDNA IgG levels”. For the same molecule, the “inflammation and tissue destruction” value in experiment [15] was “reduced inflammation and tissue destruction”. Also, the “efficacy in autoantibody-driven Hashimoto's thyroiditis model” value in experiment [16] is “efficacious”.
With `CCCCCCC(=O)N[C@@H](C)C(=O)N[C@@H](CC(C)C)C(=O)[C@@]1(CO[Si](C)(C)C(C)(C)C)CO1` [UK-101], in [17], the “apoptosis of prostate PC-3 cell line in vitro” value is recorded as “induced apoptosis”. Moreover, the “tumor growth in vivo” value in experiment [18] is “significantly suppressed tumor growth”.

The values are drawn from patent US12024531B2, “Immunoproteasome inhibitors” (Principia Biopharma Inc., priority 2017, dated 2024).
